Values joined by “and” are separate entries in the source; they are usually repeats but may differ in a detail not shown here. Identical values can stand only once. Inconclusive results and toxic doses are left out. How the source made its calls: active means survival T/C of 150% or more; inactive means T/C below 125% in these data.
System: CD2F1 mice, L1210 leukemia ip, survival T/C
Experiment: NCI In Vivo Anticancer Drug Screen. Data for tumor model L1210 Leukemia (intraperitoneal) in CD2F1 (CDF1) mice
Conditions: higher = longer survival
Method in brief: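 Transplantable tumor in mice; compound-treated vs vehicle-treated groups. Read-out = treated/control ratio of the measured endpoint.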

[1] = endpoint: median survival time, dose: 25.0 mg/kg/injection, schedule: Q01DX009 (ip), vehicle: Klucel (hydroxypropylcellulose) (HPC)
[2] = endpoint: mean survival time, dose: 100.0 mg/kg/injection, schedule: Q01DX001 (ip), vehicle: saline with Tween-80
[3] = endpoint: mean survival time, dose: 200.0 mg/kg/injection, schedule: Q01DX001 (ip), vehicle: saline with Tween-80
[4] = endpoint: mean survival time, dose: 100.0 mg/kg/injection, schedule: Q01DX009 (ip), vehicle: saline with Tween-80
[5] = endpoint: mean survival time, dose: 200.0 mg/kg/injection, schedule: Q01DX009 (ip), vehicle: saline with Tween-80
[6] = endpoint: mean survival time, dose: 100.0 mg/kg/injection, schedule: Q04DX003 (ip), vehicle: saline with Tween-80
[7] = endpoint: mean survival time, dose: 200.0 mg/kg/injection, schedule: Q04DX003 (ip), vehicle: saline with Tween-80
[8] = endpoint: mean survival time, dose: 400.0 mg/kg/injection, schedule: Q04DX003 (ip), vehicle: saline with Tween-80

Measured: T/C

C/C(=N\N=C(/[Se])N1CC2CCC(CC2)C1)c1ccccn1
inactive: endpoint: median survival time, dose: 0.75 mg/kg/injection, schedule: Q01DX009 (ip), vehicle: Klucel (hydroxypropylcellulose) (HPC) 101 % of control | endpoint: median survival time, dose: 1.5 mg/kg/injection, schedule: Q01DX009 (ip), vehicle: Klucel (hydroxypropylcellulose) (HPC) 103 % of control | endpoint: median survival time, dose: 1.56 mg/kg/injection, schedule: Q01DX009 (ip), vehicle: Klucel (hydroxypropylcellulose) (HPC) 93 % of control and 101 % of control | endpoint: median survival time, dose: 3.0 mg/kg/injection, schedule: Q01DX009 (ip), vehicle: Klucel (hydroxypropylcellulose) (HPC) 102 % of control | endpoint: median survival time, dose: 3.12 mg/kg/injection, schedule: Q01DX009 (ip), vehicle: Klucel (hydroxypropylcellulose) (HPC) 97 % of control and 110 % of control | endpoint: median survival time, dose: 6.0 mg/kg/injection, schedule: Q01DX009 (ip), vehicle: Klucel (hydroxypropylcellulose) (HPC) 104 % of control | endpoint: median survival time, dose: 6.25 mg/kg/injection, schedule: Q01DX009 (ip), vehicle: Klucel (hydroxypropylcellulose) (HPC) 86 % of control | endpoint: median survival time, dose: 12.0 mg/kg/injection, schedule: Q01DX009 (ip), vehicle: Klucel (hydroxypropylcellulose) (HPC) 102 % of control | endpoint: median survival time, dose: 12.5 mg/kg/injection, schedule: Q01DX009 (ip), vehicle: Klucel (hydroxypropylcellulose) (HPC) 109 % of control | [1] 89 % of control

CCOC(=O)c1cc([N+](=O)[O-])c[nH]1
inactive: [1] 101 % of control | endpoint: median survival time, dose: 50.0 mg/kg/injection, schedule: Q01DX009 (ip), vehicle: Klucel (hydroxypropylcellulose) (HPC) 98 % of control | endpoint: median survival time, dose: 100.0 mg/kg/injection, schedule: Q01DX009 (ip), vehicle: Klucel (hydroxypropylcellulose) (HPC) 97 % of control | endpoint: median survival time, dose: 200.0 mg/kg/injection, schedule: Q01DX009 (ip), vehicle: Klucel (hydroxypropylcellulose) (HPC) 98 % of control

CCOC(=O)Cc1cnc(SC)nc1Nc1ccc(F)cc1
inactive: [2] 90 % of control | [3] 95 % of control

Cc1cc(Br)c[nH]c1=O
inactive: [2] 104 % of control | [4] 94 % of control | [3] 108 % of control | [5] 100 % of control | endpoint: mean survival time, dose: 400.0 mg/kg/injection, schedule: Q01DX001 (ip), vehicle: saline with Tween-80 104 % of control

CC1CCC2NCCCC2C1 (stereo unspecified)
inactive: endpoint: mean survival time, dose: 5.0 mg/kg/injection, schedule: Q04DX002 (ip), vehicle: saline 98 % of control | endpoint: mean survival time, dose: 10.0 mg/kg/injection, schedule: Q04DX002 (ip), vehicle: saline 95 % of control | endpoint: mean survival time, dose: 20.0 mg/kg/injection, schedule: Q04DX002 (ip), vehicle: saline 98 % of control

CC(=O)OCC1OC(n2cnc3c(I)nc(I)nc32)C(OC(C)=O)C1OC(C)=O (stereo unspecified)
inactive: endpoint: median survival time, dose: 25.0 mg/kg/injection, schedule: Q01DX005 (ip), vehicle: saline with Tween-80 105 % of control | endpoint: median survival time, dose: 50.0 mg/kg/injection, schedule: Q01DX005 (ip), vehicle: saline with Tween-80 95 % of control | endpoint: median survival time, dose: 100.0 mg/kg/injection, schedule: Q01DX005 (ip), vehicle: saline with Tween-80 96 % of control | endpoint: median survival time, dose: 200.0 mg/kg/injection, schedule: Q01DX005 (ip), vehicle: saline with Tween-80 95 % of control

CN(C)NCc1ccccc1
inactive: endpoint: mean survival time, dose: 25.0 mg/kg/injection, schedule: Q01DX009 (ip), vehicle: saline 102 % of control | endpoint: mean survival time, dose: 50.0 mg/kg/injection, schedule: Q01DX009 (ip), vehicle: saline 102 % of control | endpoint: mean survival time, dose: 100.0 mg/kg/injection, schedule: Q01DX009 (ip), vehicle: saline 94 % of control and 107 % of control

O=c1oc2c(O)c(O)cc3c(=O)oc4c(O)c(O)cc1c4c23
inactive: endpoint: mean survival time, dose: 12.5 mg/kg/injection, schedule: Q01DX009 (ip), vehicle: Klucel (hydroxypropylcellulose) (HPC) 100 % of control | endpoint: mean survival time, dose: 25.0 mg/kg/injection, schedule: Q01DX009 (ip), vehicle: Klucel (hydroxypropylcellulose) (HPC) 113 % of control | endpoint: mean survival time, dose: 50.0 mg/kg/injection, schedule: Q01DX009 (ip), vehicle: Klucel (hydroxypropylcellulose) (HPC) 113 % of control | endpoint: mean survival time, dose: 100.0 mg/kg/injection, schedule: Q01DX009 (ip), vehicle: Klucel (hydroxypropylcellulose) (HPC) 106 % of control | endpoint: mean survival time, dose: 200.0 mg/kg/injection, schedule: Q01DX009 (ip), vehicle: Klucel (hydroxypropylcellulose) (HPC) 95 % of control | endpoint: mean survival time, dose: 400.0 mg/kg/injection, schedule: Q01DX009 (ip), vehicle: Klucel (hydroxypropylcellulose) (HPC) 103 % of control

CC1(C)OC(=O)C(c2ccccc2)O1 (stereo unspecified)
inactive: [6] 100 % of control | [7] 98 % of control | [8] 104 % of control

C/C=C/c1ccc(OC(C)=O)c(OC)c1
inactive: [4] 100 % of control | [6] 94 % of control | [5] 94 % of control | [7] 100 % of control | endpoint: mean survival time, dose: 400.0 mg/kg/injection, schedule: Q01DX009 (ip), vehicle: saline with Tween-80 105 % of control | [8] 94 % of control
